Laboratory results: publication PMC7562898, “Homogeneous single-label cGMP detection platform for the functional study of nitric oxide-sensitive (soluble) guanylyl cyclases and cGMP-specific phosphodiesterases” (Scientific Reports, 2020)
Like-named read-outs stand apart in the source and are kept apart here.

How the values were obtained:
[1] = tested on: PDEs in mouse brain homogenate; assay: cGMP hydrolysis (PDE activity) in mouse brain homogenate; assay type: biochemical; conditions: 0.1 mg/ml homogenate, 50 µM cGMP, 15 min at 37 °C, 3 µM MT2; read-out: apparent IC50 of cGMP hydrolysis in mouse brain homogenate
Procedure: PDE inhibitors with varying specificity profile, BAY73-6691, sildenafil, and IBMX (0–500 µM), were assayed in a high-speed supernatants of mouse brain homogenates. Reactions were performed in 5 µL volume in the presence of 0.1 mg/ml of homogenate and 50 µM cGMP. After 15 min incubation at 37 °C, detection solution (0.4 µg/ml cGMP antibody, 5 nM Eu(III)-cGMP, and 3.0 µM MT2) was added and TRF-signals were recorded.

[2] = tested on: monoclonal cGMP-specific antibody; assay: Homogeneous competitive QRET cGMP detection with cGMP-specific antibody; assay type: binding; conditions: for recognition of the nucleotide by the antibody: nucleotide titration, data not shown
Procedure: All biochemical assays were performed in a 10 µL final volume using triplicate reactions and three individual experiments unless otherwise indicated. The non-enzymatic and real-time cGMP assays were performed in assay buffer 1 (20 mM HEPES, pH 7.5, 1 mM MgCl2, 0.005% γ-globulins, 0.01% Triton X-100), enzymatic end-point assays in assay buffer 2 (assay buffer 1 without 0.01% Triton X-100), and detection components ([…], antibody, and MT2) were added in the stop buffer (assay buffer 1 supplemented with 10 mM EDTA instead of 1 mM MgCl2). In all buffers, sGMP was equally detected. Buffers for end-point assay were optimized to avoid the used of Triton X-100 during the enzymatic sGC reaction, avoiding the progressive loss of heme, and by using the EDTA in stop buffer to chelate the enzyme essential MgCl2.
After initial assays, cGMP detection protocol was tested in cGMP titration with two antibody (2 ng/well and 4 ng/well) and two Eu(III)-cGMP (1 nM and 5 nM) concentrations. Titrated cGMP (0–250 µM) was added in 5 µL volume and detection solution containing Eu(III)-cGMP, cGMP antibody, and MT2 (1.2 µM or 2.2 µM) in 5 µL volume. Similar titrations were performed with other nucleotides (cAMP, GTP, ATP, ADP, and GMP). cGMP was also titrated in the presence of 0.5 mM GTP. In all of these assays, background controls were performed with six repeats and TRF-signals were monitored multiple times between 5 to 90 min to determine the TRF-signal stability.
Assays were performed with Eu(III)-cGMP concentration dependent individually fixed MT2 (1.2–3.2 µM) quencher concentration. TRF-signals were measured and the Eu(III)-cGMP equilibrium dissociation constant (Kd) for the cGMP-specific antibody was determined using linearized Cheng-Prusoff Equation[59].

PDE5A = tested on: PDE5A; set-up: method as in PMID 10574925; conditions: read-out: Km of PDE5A for cGMP; cited from earlier work
sGC [3] = target: T1, sGC (Homo sapiens, UniProt Q02108+Q02153); set-up: method as in PMID 26777256; conditions: cited from earlier work
T1 construct: Full-length sGC was purified from Sf9 cells as described previously; made in house; host or cells: Sf9 cells
T1 sequence (Q02108 1-690): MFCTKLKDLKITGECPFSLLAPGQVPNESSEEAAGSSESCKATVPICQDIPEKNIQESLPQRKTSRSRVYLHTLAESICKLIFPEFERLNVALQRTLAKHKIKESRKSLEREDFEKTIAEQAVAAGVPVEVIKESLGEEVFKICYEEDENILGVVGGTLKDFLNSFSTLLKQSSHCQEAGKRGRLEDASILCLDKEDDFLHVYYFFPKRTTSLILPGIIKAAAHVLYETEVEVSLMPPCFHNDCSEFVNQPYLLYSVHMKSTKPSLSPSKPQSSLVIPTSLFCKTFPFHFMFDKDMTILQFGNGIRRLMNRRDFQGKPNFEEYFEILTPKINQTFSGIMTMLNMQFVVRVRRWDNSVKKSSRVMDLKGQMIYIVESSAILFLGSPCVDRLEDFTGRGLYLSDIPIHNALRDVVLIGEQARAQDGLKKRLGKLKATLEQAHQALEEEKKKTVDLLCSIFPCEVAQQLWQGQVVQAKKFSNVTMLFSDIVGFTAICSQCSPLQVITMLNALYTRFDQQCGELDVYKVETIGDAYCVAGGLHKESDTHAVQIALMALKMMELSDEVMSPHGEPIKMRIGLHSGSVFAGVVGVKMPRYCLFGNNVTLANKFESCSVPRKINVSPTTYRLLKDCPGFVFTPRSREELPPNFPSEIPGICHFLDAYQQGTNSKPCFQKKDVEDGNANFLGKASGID
T1 sequence (Q02153 1-619): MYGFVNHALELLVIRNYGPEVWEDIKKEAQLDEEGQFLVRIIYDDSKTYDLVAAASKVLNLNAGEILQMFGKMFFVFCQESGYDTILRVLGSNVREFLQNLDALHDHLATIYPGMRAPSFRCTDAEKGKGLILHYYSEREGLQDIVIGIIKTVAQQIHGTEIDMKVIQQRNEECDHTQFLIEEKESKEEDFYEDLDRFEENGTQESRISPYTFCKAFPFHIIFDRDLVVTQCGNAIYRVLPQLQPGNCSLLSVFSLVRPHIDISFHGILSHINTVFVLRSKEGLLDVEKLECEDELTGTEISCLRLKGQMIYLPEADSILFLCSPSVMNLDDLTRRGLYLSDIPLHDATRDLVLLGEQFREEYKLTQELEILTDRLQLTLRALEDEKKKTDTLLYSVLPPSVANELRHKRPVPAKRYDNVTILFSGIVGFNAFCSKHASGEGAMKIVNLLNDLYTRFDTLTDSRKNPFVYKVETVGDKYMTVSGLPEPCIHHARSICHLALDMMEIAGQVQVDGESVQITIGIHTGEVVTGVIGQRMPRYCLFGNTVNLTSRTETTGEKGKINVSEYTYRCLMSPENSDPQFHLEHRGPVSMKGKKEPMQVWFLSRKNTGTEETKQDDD

sGC [4] = target: T1, sGC; assay: sGC activity assay, endpoint QRET cGMP detection; assay type: biochemical; conditions: for fold increase for cGMP compared to untreated sGC: 100 µM gemfibrozil or 10 µM DEA-NO; for EC50: 2 ng sGC, 0.5 mM GTP, 30 min at 37 °C, read-out: EC50 of concentration dependent sGC activation; for effect on sGC activity at fixed saturating concentration: 10 µM NS2028, 10 µM DEA-NO
Procedure: Optimized cGMP detection platform was applied to all enzymatic assays. For non-stimulated conditions, purified sGC enzyme (0.04–276 ng/well) was incubated with or without 0.5 mM GTP in the assay buffer 2 for 10 to 45 min at 37 °C in 5 µL volume. The reaction was stopped by adding 5 µL of detection solution (0.4 µg/ml cGMP antibody, 5 nM Eu(III)-cGMP, and 2.2 µM MT2) containing EDTA. For NO stimulated sGC activity, the same reactions were performed in the presence of 10 or 100 µM DEA-NO added with GTP. DEA-NO was always prepared from a 100 mM stock solution in 10 mM NaOH, which was stored at − 80 °C. TRF-signals were always monitored multiple times between 5 to 90 min to determine the TRF-signal stability.
In assays where dose-dependent effect of three sGC activators, DEA-NO, YC-1, and riociguat, were tested, the compounds (0–100 µM) were incubated with 2 ng sGC. Reactions were initiated by adding 0.5 mM GTP to reach 5 µL volume and incubated for 30 min at 37 °C. Reactions were stopped by adding 5 µL of detection solution and TRF-signals were recorded. To evaluate the linearity of the cGMP production by sGC, 3 or 12 ng of sGC were used for resting conditions and 0.5 ng for 100 µM DEA-NO activated sGC. Assays were performed in separate plates and reactions were stopped at indicated time points (5–60 min), before TRF-signal monitoring as above.
For assays containing fixed concentration of sGC regulators, 5 ng of sGC was incubated with one, or the indicated combination of following molecules: 10 µM NS2028, 100 nM BAY58-2667, 100 µM gemfibrozil, 10 µM BAY41-2272, 100 µM Cbi, 10 µM DEA-NO or SNP with glutathione (100 µM each). 5 µL reactions containing 0.5 mM GTP were incubated for 10 min at 37 °C and stopped by adding the detection components. TRF-signals were recorded as described above.
Cell lysate interferences were evaluated in an endpoint assay with different amounts of sGC (0.008–166.7 ng) and 0.07 or 0.14 mg/ml of COS7 cell lysate. sGC/lysate mixture was supplemented with 0.5 mM GTP in the presence or absence of 10 µM DEA-NO, and 5 µL reaction was incubated for 10 min at 37 °C. Detection components were thereafter added and TRF-signals were monitored as above.
Reproducibility and HTS compatibility were determined by running Z’-factor assay using 24 sGC reactions with or without activity modulation in three consecutive days. Assays were performed with fixed sGC concentration (5 ng/well) and sGC activation was performed using gemfibrozil (100 µM) or DEA NONOate (10 µM). All assays were initiated by the addition of 0.5 mM GTP to obtain a final 5 µL reaction volume, 37 °C for 10 min. Detection solution was added and TRF-signals were monitored as previously. Z’-factors were calculated using sGC basal activity as negative and activated reactions (NO or gemfibrozil) as positive controls.
In parallel to all assays, changes in TRF-signal in response to different concentrations of exogenously added cGMP were recorded to generate a cGMP standard curve. The cGMP standard was created using 1:3 dilution series to maximize the linear part of the standard, which was used to calculate the amount of cGMP generated by sGC during the reaction. Only at the linear area, the TRF-signal relation to cGMP concentration can be determined.

With `CCCc1nn(C)c2c(=O)[nH]c(-c3cc(S(=O)(=O)N4CCN(C)CC4)ccc3OCC)nc12` [sildenafil] the IC50 [1] was 45.2 ± 6.8 µM.
In the case of `Nc1ncnc2c1ncn2[C@@H]1O[C@@H]2COP(=O)(O)O[C@H]2[C@H]1O` [cAMP, cyclic adenosine monophosphate], the “recognition of the nucleotide by the antibody” value (shortened to “recognition of the nucleotide”) [2] is reported as “could not be recognized by the antibody”.
In the case of `Nc1nc2c(ncn2[C@@H]2O[C@@H]3COP(=O)(O)O[C@H]3[C@H]2O)c(=O)[nH]1` [cGMP, Cyclic 3´,5´-guanosine monophosphate], the EC50 ([2]; 1 nM Eu(III)-cGMP and 2 ng of antibody/well, read-out: EC50 value of cGMP titration (displacement of Eu(III)-cGMP from antibody)) is given as 0.72 ± 0.07 µM, the EC50 ([2]; 5 nM Eu(III)-cGMP and 4 ng of antibody/well, read-out: EC50 of cGMP titration (displacement of Eu(III)-cGMP from antibody)) is given as 1.8 ± 0.22 µM and the Km (PDE5A) is given as roughly 2 µM.
In the case of `Nc1nc2c(ncn2[C@@H]2O[C@H](COP(=O)(O)OP(=O)(O)OP(=O)(O)O)[C@@H](O)[C@H]2O)c(=O)[nH]1` [GTP, guanosine triphosphate], the “specificity of the antibody for cGMP over the nucleotide” value [2] is given as 1000 fold, the Km (sGC [3]; NO-activated sGC, read-out: Km for GTP, NO-activated sGC) is given as less than 75 µM and the Km (sGC [3]; resting sGC, read-out: Km for GTP, resting sGC) is given as roughly 220 µM.
In the case of `Cc1ccc(C)c(OCCCC(C)(C)C(=O)O)c1` [gemfibrozil], the “fold increase for cGMP compared to untreated sGC” value (sGC [4]; 5 ng sGC/well, 10 min at 37 °C) is reported as “approximately 20 fold”.
With `CCN(CC)/[N+]([O-])=N/O.CCNCC` [DEA-NO, diethylamine NONOate] the EC50 (sGC [4]) was 0.93 ± 0.1 µM, the “effect on sGC activity at fixed saturating concentration” value (sGC [4]; 5 ng sGC, 10 min at 37 °C) was “largest increase in sGC activity” and the “NO-stimulated sGC specific activity in the presence of COS7 lysate” value (sGC [4]; 10 µM DEA-NO, 5 ng sGC/well, 10 min at 37 °C, 0.14 mg/ml COS7 lysate) was 19.3 ± 4.2 µmol/mg/min. For the same compound, the “NO-stimulated sGC specific activity” value (sGC [4]; 10 µM DEA-NO, 5 ng sGC/well, 10 min at 37 °C, buffer) was 4.8 ± 1.0 µmol/min/mg and the “fold increase for cGMP compared to untreated sGC” value (sGC [4]; 5 ng sGC/well, 10 min at 37 °C) was roughly 50 fold.
In the case of `Nc1ncnc2c1ncn2[C@@H]1O[C@H](COP(=O)(O)OP(=O)(O)O)[C@@H](O)[C@H]1O` [ADP], the “recognition of the nucleotide” value [2] is reported as “could not be recognized by the antibody”.
With `Nc1ncnc2c1ncn2[C@@H]1O[C@H](COP(=O)(O)OP(=O)(O)OP(=O)(O)O)[C@@H](O)[C@H]1O` [ATP] the “recognition of the nucleotide” value [2] was “could not be recognized by the antibody”.
`CC(C)Cn1c(=O)n(C)c(=O)c2[nH]cnc21` [IBMX, 3-isobutyl-1-methylxanthine] gave an IC50 [1] of 9.9 ± 0.6 µM.
With `COC(=O)N(C)c1c(N)nc(-c2nn(Cc3ccccc3F)c3ncccc23)nc1N` [riociguat] the EC50 (sGC [4]) was 0.26 ± 0.1 µM.
`C[C@H](Cc1nc2c(cnn2-c2ccccc2Cl)c(=O)[nH]1)C(F)(F)F` [BAY73-6691] showed an IC50 [1] of 81.3 ± 4.8 µM.
Work on `OCc1ccc(-c2nn(Cc3ccccc3)c3ccccc23)o1` [YC-1, 3-(5′-hydroxymethyl-2′-furyl)-1-benzyl indazole] yielded an EC50 (sGC [4]) of 5.7 ± 1 µM.
With `O=c1onc2n1-c1cc(Br)ccc1OC2` [NS2028, 8-bromo-4H-2,5-dioxa-3,9b-diaza-cyclopenta[a]naphthalen-1-one] the “effect on sGC activity at fixed saturating concentration” value (sGC [4]; 5 ng sGC, 10 min at 37 °C) was “no significant effect” and the “effect on sGC activation when assayed together with BAY58-2667 or gemfibrozil” value (sGC [4]; 10 µM NS2028 with 100 nM BAY58-2667 or 100 µM gemfibrozil, 5 ng sGC, 10 min at 37 °C) was “increased the activation”.
